# Test results taken from US12252701B2, “Chimeric antigen receptor T cell therapy” (KITE PHARMA, INC., priority 2020, dated 2025).
# Like-named read-outs stand apart in the source and are kept apart here.
# Key:
# [1] = system: CAR-T cells; assay: CAR-T cell expansion assay (KIP-1 or CD3/CD28 stimulation); settings: CD3/CD28
# [2] = Clinical pharmacokinetic data converted to in vitro concentrations; settings: human, in vivo
# Excerpt: Given the different potencies of the JAK inhibitors and different pharmacokinetic properties for each drug, it was sought to test each drug at a relevant range of physiological concentrations based on clinical dosing and reported pharmacokinetic data from repeat dose studies. Reported Cmax values in patient sera were converted to in vitro concentrations and adjusted for reported plasma protein binding.
# [3] = system: CD19 CAR T cells; assay: CAR T cell cytokine production (Luminex) under CD19 K562, KIP-1 or CD2/3/28 stimulation; settings: 72 h; for IC50: Homo sapiens, T-cell
# [4] = cited from earlier work
structure (smiles),measurement,setting,value
C[C@@H]1C[C@H]2[C@@H]3CCC4=CC(=O)C=C[C@]4(C)[C@@]3(F)[C@@H](O)C[C@]2(C)[C@@]1(O)C(=O)CO [dexamethasone],% viability,"[1]; dose 50 nM, day 4",45.9%
same,% viability,"[1]; dose 50 nM, day 8",44.4%
same,% viability,"[1]; dose 50 nM, day 12",74.7%
same,% viability,"[1]; dose 100 nM, day 4",53.4%
same,% viability,"[1]; dose 100 nM, day 8",51.3%
same,% viability,"[1]; dose 100 nM, day 12",66.3%
same,PPB adj. in Vitro concentration,[2],67.4 nM
same,clinically relevant dose level (in vitro concentration),[2],~70 nM
same,"Suppression of cytokine production, MCP-1, % inh.",[3]; CD3/CD28 stimulation,>80% inh.
same,"Suppression of cytokine production, TNFa, % inh.",[3]; CD3/CD28 stimulation,>50% inh.
same,IC50,"[3]; read-out: Suppression of cytokine production, GMCSF (IC50), CD3/CD28 stimulation, 72 h",> 10 µM
same,IC50,"[3]; read-out: Suppression of cytokine production, GMCSF (IC50), K562-CD19 stimulation, 72 h",> 10 µM
same,IC50,"[3]; read-out: Suppression of cytokine production, GzB (IC50), CD3/CD28 stimulation, 72 h",> 10 µM
same,IC50,"[3]; read-out: Suppression of cytokine production, GzB (IC50), K562-CD19 stimulation, 72 h",> 10 µM
same,IC50,"[3]; read-out: Suppression of cytokine production, GzB (IC50), KIP-1 stimulation, 72 h",> 10 µM
same,IC50,"[3]; read-out: Suppression of cytokine production, IFNg (IC50), CD3/CD28 stimulation, 72 h",> 10 µM
same,IC50,"[3]; read-out: Suppression of cytokine production, IFNg (IC50), K562-CD19 stimulation, 72 h",> 10 µM
same,IC50,"[3]; read-out: Suppression of cytokine production, IFNg (IC50), KIP-1 stimulation, 72 h",> 10 µM
same,IC50,"[3]; read-out: Suppression of cytokine production, IL-2Ra (IC50), CD3/CD28 stimulation, 72 h",> 10 µM
same,IC50,"[3]; read-out: Suppression of cytokine production, IL-2Ra (IC50), K562-CD19 stimulation, 72 h",> 10 µM
same,IC50,"[3]; read-out: Suppression of cytokine production, IL-8 (IC50), CD3/CD28 stimulation, 72 h",> 10 µM
same,IC50,"[3]; read-out: Suppression of cytokine production, IL-8 (IC50), K562-CD19 stimulation, 72 h",> 10 µM
same,IC50,"[3]; read-out: Suppression of cytokine production, IL-10 (IC50), CD3/CD28 stimulation, 72 h",> 10 µM
same,IC50,"[3]; read-out: Suppression of cytokine production, MIG (IC50), CD3/CD28 stimulation, 72 h",> 10 µM
same,IC50,"[3]; read-out: Suppression of cytokine production, MIP-1a (IC50), CD3/CD28 stimulation, 72 h",> 10 µM
same,IC50,"[3]; read-out: Suppression of cytokine production, MIP-1a (IC50), K562-CD19 stimulation, 72 h",> 10 µM
same,IC50,"[3]; read-out: Suppression of cytokine production, MIP-1a (IC50), KIP-1 stimulation, 72 h",> 10 µM
same,IC50,"[3]; read-out: Suppression of cytokine production, MIP-1b (IC50), CD3/CD28 stimulation, 72 h",> 10 µM
same,IC50,"[3]; read-out: Suppression of cytokine production, MIP-1b (IC50), K562-CD19 stimulation, 72 h",> 10 µM
same,IC50,"[3]; read-out: Suppression of cytokine production, MIP-1b (IC50), KIP-1 stimulation, 72 h",> 10 µM
same,IC50,"[3]; read-out: Suppression of cytokine production, Perforin (IC50), CD3/CD28 stimulation, 72 h",> 10 µM
same,IC50,"[3]; read-out: Suppression of cytokine production, Perforin (IC50), K562-CD19 stimulation, 72 h",> 10 µM
same,IC50,"[3]; read-out: Suppression of cytokine production, Perforin (IC50), KIP-1 stimulation, 72 h",> 10 µM
same,"Suppression of cytokine production, IL-6, % inh.",[3]; KIP-1 stimulation,66% inh.
same,"Suppression of cytokine production, IL-10, % inh.",[3]; KIP-1 stimulation,50% inh.
same,"Suppression of cytokine production, MCP-1, % inh.",[3]; KIP-1 stimulation,66% inh.
same,"Suppression of cytokine production, MIG, % inh.",[3]; KIP-1 stimulation,50% inh.
same,"Suppression of cytokine production, TNFa, % inh.",[3]; KIP-1 stimulation,75% inh.
same,Cmax,"[4]; human, in vivo",115 ng/mL
same,Protein binding,"[4]; plasma protein binding, reported",77%
